From patent publication US9809640B2, “ApoE peptide dimers and uses thereof” (priority 2010, dated 2017)
Read-outs that look alike come from different tables or passages of the source. Non-standard residues stand in square brackets, D forms with d. Residues, ends and D or L forms follow the SMILES beside them. No end group written: not given here. Aib = CC(C)(N)C(=O)O

What was measured:
B-CLL cells = assay: Cytotoxicity on patient-derived B-CLL cells (MTS assay); details: for Fold Change: CLL EC50 relative to COG056 (rev133) = 1.0
From the text: FIG. 5A: Dose response curves for COG449 cytotoxicity on CLL cells from 4 leukemia patients. Human CLL cells were isolated from blood samples and assayed for COG449 cytotoxicity. […] FIG. 5B: Dose response curves for COG445 on CLL cells from 7 patients or normal B-cells from 5 patients. Human CLL cells and PBMC were isolated and assayed for cytotoxicity of COG445.
Blood from CLL patients was collected and CD5+/CD19+ CLL cells were isolated using the RosetteSep™ Human B-Cell Enrichment Cocktail, according to the manufacturer's instructions, and treated with COG compounds. Compounds were applied to B-CLL cells (2.5×10^5 cells/well in a 96 well plate), after which the cells were treated for 72 hours.
Normal B-cells from volunteers and B-CLL cells from patients are isolated using the RosetteSep™ Human B Cell Enrichment Cocktail according to the manufacturer's instructions. This method depletes whole blood of T cells, monocytes, and NK cells using a proprietary antibody cocktail that cross-links unwanted cells in human whole blood to multiple red blood cells (RBCs) forming immunorosettes. This increases the density of the unwanted (rosetted) cells, such that they pellet along with the free RBCs when centrifuged over a buoyant density medium such as Ficoll-Paque®. This leaves the highly enriched B-cell or B-CLL cells at the interface between Ficoll and the plasma. The antibodies in the cocktail contain […] and anti-CD16 antibodies to remove T cells, monocytes, and NK cells, respectively. The purity of these B-cell and B-CLL preparations is then determined by flow cytometry.
For cytotoxicity assays, 3×10^6 CLL cells/well are cultured in 24 well tissue culture plates in 1.5 mL of Hybridoma SFM™ (Gibco, Long Island, N.Y.) as described by Levesque et al. (2001, 2003). All cultures are incubated at 37° C., 5% CO2 in air.

BV2 microglia cells = assay: LPS-induced nitric oxide production in BV2 microglia cells; format: cell-based; details: 50% suppression of nitric oxide release from BV2 cells following LPS stimulation
Description: FIG. 1. COG 112 inhibits LPS-induced production of inflammatory cytokines in BV2 microglia cells. Inhibition curves for COG112 in the production of NO (green squares), TNFα (red diamonds), and IL-6 (blue triangles) by BV2 microglia. Compounds were added to the final concentrations indicated on the graph along with 100 ng/mL of LPS. After 24 hours the media was removed and assayed by two-site ELISA (BioSource) and quantitated relative to a standard curve on the same plate.
FIG. 3. NO Inhibition curve for COG449. BV2 microglia were treated with COG449 at the final concentrations indicated on the graph, along with 100 ng/mL of LPS. After 24 hours the media was removed and assayed by two-site ELISA (BioSource) and quantitated relative to a standard curve on the same plate.
(§1) We also evaluated the various peptides for efficacy in suppressing nitric oxide production induced by LPS stimulation of BV2 microglia cells as a measure of anti-inflammatory activity as well as the maximum dose tolerated in mice (Table I and FIG. 6A). For the LPS assay, EC50 is the concentration of compound that caused a 50% suppression of nitric oxide release from BV2 cells following LPS stimulation. For mouse toxicity, MTD is the maximum dose of the compound that can be given by intravenous injection without causing deaths after 24 hrs. […] Coupling the ApoE domain to a protein transduction domain further enhanced the potency of the dimers.
Low passage BV2 microglial cell cultures are maintained in 10% HI (Heat Inactivated) FBS DMEM media (supplemented with MEM NEAA (Non-Essential Amino Acids), sodium pyruvate and Pen-Strep) and continuously cultured until needed. To determine the IC50 values for NO production, peptides are added to BV2 cultures in 1% HI FBS DMEM media (supplemented with MEM NEAA and sodium pyruvate) at a range of final assay concentrations from 1.0 μM in 2 fold dilutions to 7.8 nM followed immediately by addition of LPS (100 ng/mL final concentration) as previously described (Laskowitz et al. (2001) Exp Neurol, Vol. 167(1): 74-85). After incubating for 18±1 hours, conditioned media is removed for analysis of nitrite (the stable oxidation product of released nitric oxide) by the Griess colorimetric assay (Promega). Remaining cells are assayed for viability in an MTT assay (Promega) and the nitrite assay values are normalized for each concentration using the percent viability of cells in the MTT assay. […] Typically, the absence of LPS exposure to BV2 cells results in levels below the limit of detection in our assays. Similarly, addition of any of the peptides up to 25 μM without LPS results in undetectable NO levels.

[1] = Mouse toxicity, maximum tolerated dose by intravenous injection; details: in vivo, maximum dose by intravenous injection without deaths after 24 hrs
From the text: as §1

normal B-cells = assay: Cytotoxicity on normal B-cells from volunteers; format: cell-based, human; details: normal B-cells from volunteers
From the text: Normal B-cells from volunteers and B-CLL cells from patients are isolated using the RosetteSep™ Human B Cell Enrichment Cocktail according to the manufacturer's instructions. This method depletes whole blood of T cells, monocytes, and NK cells using a proprietary antibody cocktail that cross-links unwanted cells in human whole blood to multiple red blood cells (RBCs) forming immunorosettes. This increases the density of the unwanted (rosetted) cells, such that they pellet along with the free RBCs when centrifuged over a buoyant density medium such as Ficoll-Paque®. This leaves the highly enriched B-cell or B-CLL cells at the interface between Ficoll and the plasma. The antibodies in the cocktail contain anti-CD14, anti-CD2 and anti-CD16 antibodies to remove T cells, monocytes, and NK cells, respectively. The purity of these B-cell and B-CLL preparations is then determined by flow cytometry. Preparations typically average less than 2% CD3+ T-cells and less than 0.5% CD14+ monocytes. In the case of B-CLL cell isolation, we routinely obtain preparations that contain less than 1.5% normal CD19+/CD5− B-cells using this method.

U87MG glioblastoma cells = format: cell-based; details: MTT
Description: FIG. 14A: Dose response curve of COG445 on proliferation of U87 (open circles) and MDA-MB-231 (filled circles) cells as measured by MTT reduction. FIG. 14B: Dose response curve of COG445 on proliferation of MDA-MB-231 cells as measured by cell count.
To determine whether ApoE peptide dimers were cytotoxic to other types of cancer, we evaluated the effect of three different ApoE BMOE-linked peptide dimers (COG449, COG492, COG493; see Table I) on the growth characteristics of U87MG glioblastoma cells. Various concentrations of COG449, COG492, COG493 or Sorafenib were used to treat U87MG glioblastoma cells and viable cells were quanititated using MTT. Sorafenib, which has previously been reported to be cytotoxic to glioblastoma cells (Yang et al. (2010) Mol Cancer Ther., Vol. 9(4):953-962), was used as a positive control.
Because COG445 inhibited Akt activation and downstream signaling, we examined the effects of COG445 on cellular proliferation. Adherent MB231 and U87 cells were grown for ˜24 hours in the presence of COG445 and cellular proliferation was measured by MTT reduction. […] Furthermore, COG445 inhibited MB231 cellular proliferation as determined by cell count (FIG. 14B). Approximately 6×10^4 cells were plated in growth media (RPMI+10% FBS) for 24-hours with increasing concentrations of COG445. […] However at concentrations ≧1 μM COG445, there appears to be a loss of cells. This is partially explained by decreased proliferation, although it is possible that the rate of cellular degradation was increased in the presence of COG445.

[2] = read-out: CLL EC50, B-CLL cells from patients, 72 hours, MTS assay

Molecule	Fold Change (B-CLL cells)	EC50 (B-CLL cells; [2]) [µM]	EC50 (BV2 microglia cells) [µM]	EC50 (B-CLL cells; read-out: ED50 cytotoxic potency (text, Table I), CLL cells) [µM]	MTD at 24 h [1] [mg/kg]	EC50 (normal B-cells) [µM]	cytotoxicity to U87MG cells (U87MG glioblastoma cells)
CC[C@H](C)[C@H](NC(=O)[C@H](CCCCN)NC(=O)[C@@H](NC(=O)[C@H](CCC(N)=O)NC(=O)[C@@H](N)CCCNC(=N)N)[C@@H](C)CC)C(=O)N[C@@H](Cc1c[nH]c2ccccc12)C(=O)N[C@@H](Cc1ccccc1)C(=O)N[C@@H](CCC(N)=O)C(=O)N[C@@H](CC(N)=O)C(=O)N[C@@H](CCCNC(=N)N)C(=O)N[C@@H](CCCNC(=N)N)C(=O)N[C@@H](CCSC)C(=O)N[C@@H](CCCCN)C(=O)N[C@@H](Cc1c[nH]c2ccccc12)C(=O)N[C@@H](CCCCN)C(=O)N[C@@H](CCCCN)C(=O)N[C@@H](CS)C(=O)N[C@@H](C)C(=O)N[C@@H](CO)C(=O)NC(C)(C)C(=O)N[C@@H](CC(C)C)C(=O)N[C@@H](CCCNC(=N)N)C(=O)N[C@@H](CCCCN)C(=O)N[C@@H](CC(C)C)C(=O)NC(C)(C)C(=O)N[C@@H](CCCCN)C(=O)N[C@@H](CCCNC(=N)N)C(=O)N[C@@H](CC(C)C)C(=O)N[C@@H](CC(C)C)C(=O)O [COG120, RQIKIWFQNRRMKWKK-C-AS(Aib)LRKL(Aib)KRLL (SEQ ID NO: 7)] (H-RQIKIWFQNRRMKWKKCAS[Aib]LRKL[Aib]KRLL-OH; N-terminus and C-terminus assumed)	12.6	1	< 1				
CC(=O)N[C@@H](CC(C)C)C(=O)N[C@@H](CCCNC(=N)N)C(=O)N[C@H](C(=O)N[C@@H](CCCNC(=N)N)C(=O)N[C@@H](CC(C)C)C(=O)N[C@@H](C)C(=O)N[C@@H](CO)C(=O)N[C@@H](Cc1c[nH]cn1)C(=O)N[C@@H](CC(C)C)C(=O)N[C@@H](CCCNC(=N)N)C(=O)N[C@@H](CCCCN)C(=O)N[C@@H](CC(C)C)C(=O)N[C@@H](CCCNC(=N)N)C(=O)N[C@@H](CCCCN)C(=O)N[C@@H](CCCNC(=N)N)C(=O)N[C@@H](CC(C)C)C(=O)N[C@@H](CC(C)C)C(N)=O)C(C)C [COG133, LRVRLASHLRKLRKRLL (SEQ ID NO: 3)]				4.4 ± 1.5	16	> 20	
CC(C)C[C@H](NC(=O)[C@H](CC(C)C)NC(=O)[C@H](CCCNC(=N)N)NC(=O)[C@H](CCCCN)NC(=O)C(C)(C)NC(=O)[C@H](CC(C)C)NC(=O)[C@H](CCCCN)NC(=O)[C@H](CCCNC(=N)N)NC(=O)[C@H](CC(C)C)NC(=O)C(C)(C)NC(=O)[C@H](CO)NC(=O)[C@H](C)NC(=O)[C@H](CS)NC(=O)[C@H](CCCNC(=N)N)NC(=O)[C@H](CCCNC(=N)N)NC(=O)[C@H](CCCNC(=N)N)NC(=O)[C@H](CCC(N)=O)NC(=O)[C@H](CCCNC(=N)N)NC(=O)[C@H](CCCNC(=N)N)NC(=O)[C@H](CCCCN)NC(=O)[C@H](CCCCN)NC(=O)[C@H](CCCNC(=N)N)NC(=O)CNC(=O)[C@@H](N)Cc1ccc(O)cc1)C(=O)O [COG226, YGRKKRRQRRR-C-AS(Aib)LRKL(Aib)KRLL (SEQ ID NO: 6)] (H-YGRKKRRQRRRCAS[Aib]LRKL[Aib]KRLL-OH)	9.2	1.4	< 1				
CC(=O)N[C@@H](CSC1CC(=O)N(CCN2C(=O)CC(SC[C@H](NC(C)=O)C(=O)N[C@@H](CC(C)C)C(=O)N[C@@H](CCCNC(=N)N)C(=O)N[C@H](C(=O)N[C@@H](CCCNC(=N)N)C(=O)N[C@@H](CC(C)C)C(=O)N[C@@H](C)C(=O)N[C@@H](CO)C(=O)N[C@@H](Cc3c[nH]cn3)C(=O)N[C@@H](CC(C)C)C(=O)N[C@@H](CCCNC(=N)N)C(=O)N[C@@H](CCCCN)C(=O)N[C@@H](CC(C)C)C(=O)N[C@@H](CCCNC(=N)N)C(=O)N[C@@H](CCCCN)C(=O)N[C@@H](CCCNC(=N)N)C(=O)N[C@@H](CC(C)C)C(=O)N[C@@H](CC(C)C)C(N)=O)C(C)C)C2=O)C1=O)C(=O)N[C@@H](CC(C)C)C(=O)N[C@@H](CCCNC(=N)N)C(=O)N[C@H](C(=O)N[C@@H](CCCNC(=N)N)C(=O)N[C@@H](CC(C)C)C(=O)N[C@@H](C)C(=O)N[C@@H](CO)C(=O)N[C@@H](Cc1c[nH]cn1)C(=O)N[C@@H](CC(C)C)C(=O)N[C@@H](CCCNC(=N)N)C(=O)N[C@@H](CCCCN)C(=O)N[C@@H](CC(C)C)C(=O)N[C@@H](CCCNC(=N)N)C(=O)N[C@@H](CCCCN)C(=O)N[C@@H](CCCNC(=N)N)C(=O)N[C@@H](CC(C)C)C(=O)N[C@@H](CC(C)C)C(N)=O)C(C)C (some centres unmarked) [COG492, C-LRVRLASHLRKLRKRLL (SEQ ID NO: 15) <BMOE> C-LRVRLASHLRKLRKRLL (SEQ ID NO: 15)]					25		cytotoxic
LLRKRLKRLHSALRVRL [COG056, LLRKRLKRLHSALRVRL (SEQ ID NO: 2), reference compound]	1.0	12.9	> 20				
